Measured values as given in US20040023972A1, “Use of substituted imidazo[1,2-a]-pyridin-, -pyrimidin-and-pyrazin-3-yl-amine derivatives in the preparation of medicaments for inhibiting NOS” (Gruenenthal GmbH, priority 2000, published 2004).

Molecular target: T1, NO synthase (Rattus norvegicus, UniProt P29476)
T1 construct: the supernatant was then removed by decantation and frozen in portions at −80° C; from tissue; host or cells: rat cerebellum, 20,000 g supernatant of homogenate
Assay: HTS-NOS assay (NOS assay): conversion of radioactive arginine, cation-exchanger filter plate
Format: biochemical
Conditions: 10 μM
Summary of the method: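 Rat cerebellum supernatant as NOS source, incubated with radiolabelled arginine plus cofactors including NADPH at 25 °C for 5-60 min depending on enzyme activity. Unconverted arginine was trapped on a cation-exchange filter plate, citrulline washed out, and bound arginine counted by scintillation; % inhibition versus no-compound reactions.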

Row | Compound | HTS-NOS assay: % inhibition (10 μM) [%]
1 | C#[N+]CCCCCCNc1c(-c2cccnc2)nc2cc(C)ccn12 [Example 19, Methylidyne-[6-(7-methyl-2-pyridin-3-yl-imidazo[1,2-a]pyridin-3-ylamino)-hexyl]-ammonium] | 53

Same assay, conditions: Table 5; concentration not given

Row | NOS assay % inhibition [%] | Compound
2 | 45 | Cc1ccn2c(NC(C)(C)CC(C)(C)C)c(-c3ccoc3)nc2c1.Cl [Example 311, (2-Furan-3-yl-7-methyl-imidazo[1,2-a]pyridin-3-yl)-(1,1,3,3-tetramethyl-butyl)-amine hydrochloride]
3 | 56 | Cc1cc(C)n2c(NC3CCCC3)c(-c3ccc(Br)cc3F)nc2c1.Cl [Example 304, [2-(4-Bromo-2-fluoro-phenyl)-5,7-dimethyl-imidazo[1,2-a]pyridin-3-yl]-cyclopentyl-amine hydrochloride]

Same assay, conditions: read-out: HTS-NOS assay: % inhibition (10 μM)

Row | inhibition at 10 µM [%] | Compound
4 | 60 | CC(=O)N(c1c(-c2ccc(C(=O)O)o2)nc2cc(C)cc(C)n12)C(C)(C)CC(C)(C)C [Example 154, 5-{3-[acetyl-(1,1,3,3-tetramethyl-butyl)-amino]-5,7-dimethyl-imidazo[1,2-a]-pyridin-2-yl}-furan-2-carboxylic acid]
5 | 55 | CC(=O)N(c1c(-c2ccco2)nc2cc(C)ccn12)C(C)(C)CC(C)(C)C [Example 149, N-(2-furan-2-yl-7-methyl-imidazo[1,2-a]pyridin-3-yl)-N-(1,1,3,3-tetramethylbutyl)-acetamide]
6 | 58 | CC(=O)N(c1c(-c2ccc(C)o2)nc2ccccn12)C(C)(C)CC(C)(C)C [Example 200, N-[2-(5-methyl-furan-2-yl)-imidazo[1,2-a]pyridin-3-yl]-N-(1,1,3,3-tetramethylbutyl)-acetamide]
7 | 66 | CC(=O)N(c1c(C)nc2cc(C)cc(C)n12)C(C)(C)C [Example 152, N-tert-butyl-N-(2,5,7-trimethyl-imidazo[1,2-a]pyridin-3-yl)-acetamide]
8 | 54 | CC(=O)N(c1c(-c2ccc(C3OCCO3)o2)nc2cc(C)ccn12)C(C)(C)CC(C)(C)C [Example 196, N-[2-(5-[1,3]dioxolan-2-yl-furan-2-yl)-7-methyl-imidazo[1,2-a]pyridin-3-yl]-N-(1,1,3,3-tetramethyl-butyl)-acetamide]
9 | 67 | CC(=O)N(c1c(-c2ccco2)nc2c(Br)cc(Br)cn12)C(C)(C)CC(C)(C)C [Example 165, N-(6,8-dibromo-2-furan-2-yl-imidazo[1,2-a]pyridin-3-yl)-N-(1,1,3,3-tetramethylbutyl)-acetamide]
10 | 64 | Cc1cc(C)n2c(NC(C)(C)C)c(-c3cccc(O)c3)nc2c1 [Example 20, 3-(3-Tert-butylamino-5,7-dimethyl-imidazo[1,2-a]pyridin-2-yl)-phenol]
11 | 60 | CC(=O)N(c1c(C)nc2cc(C)cc(C)n12)C(C)(C)CC(C)(C)C [Example 150, N-(1,1,3,3-tetramethyl-butyl)-N-(2,5,7-trimethyl-imidazo[1,2-a]pyridin-3-yl)-acetamide]

More lines, now with the values behind:

Row | Compound | inhibition at 10 µM [%]
12 | CC(=O)N(c1c(C)cccc1C)c1c(-c2ccccc2F)nc2cc(C)ccn12 [Example 209, N-(2,6-dimethyl-phenyl)-N-[2-(2-fluoro-phenyl)-7-methyl-imidazo[1,2-a]pyridin-3-yl]-acetamide] | 62
13 | CCCCN(C(C)=O)c1c(-c2ccc(F)cc2Cl)nc2ccccn12 [Example 246, N-butyl-N-[2-(2-chloro-4-fluoro-phenyl)-imidazo[1,2-a]pyridin-3-yl]-acetamide] | 55
14 | Cc1cccn2c(NC3CCCCC3)c(-c3ccco3)nc12 [Example 121, Cyclohexyl-(2-furan-2-yl-8-methyl-imidazo[1,2-a]pyridin-3-yl)-amine] | 53
15 | CC(=O)N(c1c(-c2ccc(C(=O)O)s2)nc2cnccn12)C(C)(C)C [Example 153, 5-[3-(acetyl-tert-butyl-amino)-imidazo[1,2-a]pyrazin-2-yl]-thiophene-2-carboxylic acid] | 78
